Consider 16 compounds from the supplement of paper PMC4649846.

Where only a bound is given, the exact number is not on record here.

Experiment [1] relates to MDA-MB-231. The experiment is described as follows: drug sensitivity score (DSS); higher = more sensitive; extreme values may be limits of the assay. The conditions noted are these: incubation time: 72 h. The protocol: (§1)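 MDA-MB-231 breast cancer cells were transfected with siBRCA1 or non-targeting siControl, then seeded 24 h later at 4000 cells/well in 384-well plates holding 198 drugs at 5 concentrations. Viability was read by CellTiter-Blue after 72 h at 37 °C. Dose-response curves were fitted in Dotmatics to give IC50 and a drug sensitivity score (DSS: area under the curve relative to the area between the 10% threshold and 100% inhibition, normalised by the log of the top response). The dose range is not stated. IC50 values of 8333.3 or 4166.7 nM mark no response (top dose), and 0.8333 nM is the lower limit.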

Experiment [2] has as its system MDA-MB-231. Particulars: incubation time: 72 h. The protocol: as §1
Where [3] appears, read: siRNA: siControl (non-targeting).

Turning to `Nc1nc(F)nc2c1ncn2[C@@H]1O[C@H](CO)[C@@H](O)[C@@H]1O` [Fludarabine], the drug sensitivity score in the experiment with MDA-MB-231 [1] (siRNA: siBRCA1) stood at 0; in the experiment with MDA-MB-231 [1] (setting [3]), 3.39. Further, the “IC50 of cell viability” value in the experiment on MDA-MB-231 [2] (siRNA: siBRCA1) was greater than 4170 nM; in the experiment with MDA-MB-231 [2] (setting [3]), 333 nM.

Consider `O=c1[nH]cc(F)c(=O)[nH]1` [Fluorouracil], for which the drug sensitivity score with MDA-MB-231 [1] (siRNA: siBRCA1) was determined as 1.13; in the experiment on MDA-MB-231 [1] (setting [3]), 0.956. Moreover, the “IC50 of cell viability” value with MDA-MB-231 [2] (siRNA: siBRCA1) and with MDA-MB-231 [2] (setting [3]) was greater than 4170 nM in each case.

As to `CC(C)C(=O)Nc1ccc([N+](=O)[O-])c(C(F)(F)F)c1` [Flutamide], the drug sensitivity score with MDA-MB-231 [1] (siRNA: siBRCA1) and in the experiment with MDA-MB-231 [1] (setting [3]) was 0 in each case. In addition, the “IC50 of cell viability” value in the experiment with MDA-MB-231 [2] (siRNA: siBRCA1) and with MDA-MB-231 [2] (setting [3]) was greater than 4170 nM throughout.

`COc1cc2c(Oc3ccc(NC(=O)C4(C(=O)Nc5ccc(F)cc5)CC4)cc3F)ccnc2cc1OCCCN1CCOCC1` [Foretinib]: the drug sensitivity score in the experiment on MDA-MB-231 [1] (siRNA: siBRCA1) amounted to 13.6; with MDA-MB-231 [1] (setting [3]), 12.8. For the same compound, the results for the “IC50 of cell viability” value in the experiment with MDA-MB-231 [2] (siRNA: siBRCA1) and in the experiment with MDA-MB-231 [2] (setting [3]) were 503 nM and 585 nM, respectively.

As for `C[C@]12CC[C@@H]3c4ccc(O)cc4C[C@@H](CCCCCCCCC[S+]([O-])CCCC(F)(F)C(F)(F)F)[C@H]3[C@@H]1CC[C@@H]2O` (some centres undefined) [Fulvestrant], the drug sensitivity score with MDA-MB-231 [1] (siRNA: siBRCA1) and in the experiment on MDA-MB-231 [1] (setting [3]) was 0 in each case. In addition, the “IC50 of cell viability” value in the experiment with MDA-MB-231 [2] (siRNA: siBRCA1) and in the experiment with MDA-MB-231 [2] (setting [3]) was greater than 4170 nM in each case.

`CS(=O)(=O)N1CCN(Cc2cc3nc(-c4cccc5[nH]ncc45)nc(N4CCOCC4)c3s2)CC1` [GDC-0941 (Pictilisib)]: the drug sensitivity score in the experiment on MDA-MB-231 [1] (siRNA: siBRCA1) stood at 7.18; with MDA-MB-231 [1] (setting [3]), 12. In addition, the results for the “IC50 of cell viability” value with MDA-MB-231 [2] (siRNA: siBRCA1) and in the experiment with MDA-MB-231 [2] (setting [3]) were 2530 nM and 570 nM, respectively.

In the case of `COc1cc2ncnc(Nc3ccc(F)c(Cl)c3)c2cc1OCCCN1CCOCC1` [Gefitinib], the drug sensitivity score in the experiment with MDA-MB-231 [1] (siRNA: siBRCA1) and with MDA-MB-231 [1] (setting [3]) was 0 each time. Further, the “IC50 of cell viability” value with MDA-MB-231 [2] (siRNA: siBRCA1) and in the experiment on MDA-MB-231 [2] (setting [3]) was greater than 4170 nM in each case.

Turning to `Nc1ccn([C@@H]2O[C@H](CO)[C@@H](O)C2(F)F)c(=O)n1` [Gemcitabine], the drug sensitivity score in the experiment on MDA-MB-231 [1] (siRNA: siBRCA1) turned out to be 7.87; in the experiment with MDA-MB-231 [1] (setting [3]) it was 12.8. Besides, the “IC50 of cell viability” value in the experiment with MDA-MB-231 [2] (siRNA: siBRCA1) stood at 2490 nM; with MDA-MB-231 [2] (setting [3]) it was 78.7 nM.

In the case of `CC(C)C[C@H](NC(=O)[C@@H](COC(C)(C)C)NC(=O)[C@H](Cc1ccc(O)cc1)NC(=O)[C@H](CO)NC(=O)[C@H](Cc1c[nH]c2ccccc12)NC(=O)[C@H](Cc1cnc[nH]1)NC(=O)[C@@H]1CCC(=O)N1)C(=O)N[C@@H](CCCNC(=N)N)C(=O)N1CCC[C@H]1C(=O)NNC(N)=O` [Goserelin], the drug sensitivity score in the experiment with MDA-MB-231 [1] (siRNA: siBRCA1) and in the experiment with MDA-MB-231 [1] (setting [3]) was 0 in each case. In addition, the “IC50 of cell viability” value with MDA-MB-231 [2] (siRNA: siBRCA1) and with MDA-MB-231 [2] (setting [3]) was greater than 4170 nM in each case.

Regarding `NC(=O)NO` [Hydroxyurea], the drug sensitivity score with MDA-MB-231 [1] (siRNA: siBRCA1) and with MDA-MB-231 [1] (setting [3]) was 0 each time. The “IC50 of cell viability” value with MDA-MB-231 [2] (siRNA: siBRCA1) and in the experiment with MDA-MB-231 [2] (setting [3]) was greater than 4170 nM throughout.

Take `CC(=O)[C@]1(O)Cc2c(O)c3c(c(O)c2[C@@H](O[C@H]2C[C@H](N)[C@H](O)[C@H](C)O2)C1)C(=O)c1ccccc1C3=O` [Idarubicin]: the results for the drug sensitivity score in the experiment with MDA-MB-231 [1] (siRNA: siBRCA1) and in the experiment on MDA-MB-231 [1] (setting [3]) were 22 and 21, respectively. The figures for the “IC50 of cell viability” value in the experiment on MDA-MB-231 [2] (siRNA: siBRCA1) and in the experiment on MDA-MB-231 [2] (setting [3]) were 91.4 nM and 115 nM, respectively.

Take `O=P1(NCCCl)OCCCN1CCCl` (centres undefined) [Ifosfamide]: the drug sensitivity score in the experiment with MDA-MB-231 [1] (siRNA: siBRCA1) and with MDA-MB-231 [1] (setting [3]) was 0 in each case. In addition, the “IC50 of cell viability” value with MDA-MB-231 [2] (siRNA: siBRCA1) and with MDA-MB-231 [2] (setting [3]) was greater than 4170 nM throughout.

On to `Cc1ccc(NC(=O)c2ccc(CN3CCN(C)CC3)cc2)cc1Nc1nccc(-c2cccnc2)n1` [Imatinib], for which the drug sensitivity score in the experiment with MDA-MB-231 [1] (siRNA: siBRCA1) and in the experiment on MDA-MB-231 [1] (setting [3]) was 0 each time. Besides, the “IC50 of cell viability” value in the experiment with MDA-MB-231 [2] (siRNA: siBRCA1) and in the experiment with MDA-MB-231 [2] (setting [3]) was greater than 4170 nM in each case.

For `CC(C)Cn1cnc2c(N)nc3ccccc3c21` [Imiquimod], the drug sensitivity score in the experiment on MDA-MB-231 [1] (siRNA: siBRCA1) and in the experiment on MDA-MB-231 [1] (setting [3]) was 0 in each case. In addition, the “IC50 of cell viability” value with MDA-MB-231 [2] (siRNA: siBRCA1) and in the experiment on MDA-MB-231 [2] (setting [3]) was greater than 4170 nM throughout.

As to `O=C(Nc1ccncc1)C(=O)c1cn(Cc2ccc(Cl)cc2)c2ccccc12` [Indibulin], the drug sensitivity score was 7.58 with MDA-MB-231 [1] (siRNA: siBRCA1) and 7.93 in the experiment on MDA-MB-231 [1] (setting [3]). Also, the “IC50 of cell viability” value in the experiment on MDA-MB-231 [2] (siRNA: siBRCA1) was found to be 753 nM; with MDA-MB-231 [2] (setting [3]), 632 nM.

For `NC(=O)c1ccc(I)c([N+](=O)[O-])c1` [Iniparib], the drug sensitivity score in the experiment on MDA-MB-231 [1] (siRNA: siBRCA1) and in the experiment on MDA-MB-231 [1] (setting [3]) was 0 in each case. Further, the “IC50 of cell viability” value with MDA-MB-231 [2] (siRNA: siBRCA1) and in the experiment with MDA-MB-231 [2] (setting [3]) was greater than 4170 nM each time.
